According to patent US12497405B2, “Bicyclic heterocycle compounds methods of use thereof for the treatment of herpes viruses” (Merck Sharp & Dohme LLC, priority 2019, dated 2025):
Like-named read-outs stand apart in the source and are kept apart here.

What was measured:
Type in all cases: cell-based
[1] = tested on: CMV; test: Viral qPCR assay, CMV; conditions: infected cells, viral genome copies by qPCR normalized to PPIA, read-out: CMV Cell EC50
Method: (§1) MRC5 cells, Vero cells, and MeWo cells were obtained from ATCC, and were maintained at 37° C./5% CO2/90% relative humidity in Minimal Essential Medium with 10% fetal bovine serum, […] L-glutamine, 100 units/ml penicillin and 100 ug/ml streptomycin. Assay plates were prepared by dispensing compounds dissolved in DMSO into wells of 384 well collagen-coated plates using an ECHO acoustic dispenser. Each test compound was tested in a 10-point, serial 3-fold dilution. Controls included uninfected cells and infected cells treated only with DMSO. Assays were initiated by mixing selected cells, in suspension, with virus, and dispensing 50 μl/well infected cells to pre-plated compounds. Plates were incubated at 37° C./5% CO2/90% relative humidity for ˜72 hrs to permit genomic replication, and infected cells were lysed by the addition of an equal volume of lysis buffer (10 mM Tris-HCl, pH8, 50 mM KCl, 2 mM MgCl2, 0.45% NP-40, 0.45% Tween-20, and 100 µg/ml proteinase K). An aliquot of the lysate was then transferred to a 384-well PCR plate and incubated at 56° C. for 1 hour, and then at 95° C. for 10 minutes. Levels of the selected viral gene and of the cellular control, PPIA, were measured in separate 10 μl qPCR assays using TaqMan® Gene Expression Master Mix (Applied Biosystems), and an 7900HT Fast Real-Time PCR System with 384-Well Block Module. 7-point, serial 10-fold dilutions of a plasmid standard were run on each plate to generate a standard curve, and genome copies numbers were calculated by plotting experimental Ct onto linear regression of the standard curve. Viral genome copy numbers were normalized by cellular control copy number, and compound effects were normalized to the window defined by the controls. Calculated % effects were fit using a 4-parameter algorithm, and EC50 was reported.

[2] = tested on: HSV1; test: Viral qPCR assay, HSV1; conditions: infected cells, viral genome copies by qPCR normalized to PPIA, read-out: HSV1 Cell EC50
Method: as §1

[3] = tested on: HSV2; test: Viral qPCR assay, HSV2; conditions: infected cells, viral genome copies by qPCR normalized to PPIA, read-out: HSV2 Cell EC50
Method: as §1

SMILES | EC50 ([1]; Human betaherpesvirus 5, 72 h) [nM] | EC50 ([2]; Human alphaherpesvirus 1, 72 h) [nM] | EC50 ([3]; Human alphaherpesvirus 2, 72 h) [nM] | EC50 ([1]; ~72 hrs) [nM] | EC50 ([2]; ~72 hrs) [nM] | EC50 ([3]; ~72 hrs) [nM]
O=C1OC[C@@H]2C[C@@H](Oc3cc4c(=O)n(Cc5ccc(Cl)cc5)c(CC5CCOCC5)nc4cc3-c3cnn(C(F)F)c3)CCN12 [Example 121] | 299 | 188 | 128 |  |  | 
COc1ccc(-c2cc3nc(C)n(Cc4ccc(Cl)cc4)c(=O)c3cc2O[C@H]2CCN3C(=O)OC[C@@H]3C2)nc1 [Example 112] | 142 | 148 | 81 |  |  | 
Cc1nc2cc(-c3cc4n(n3)C(C(F)(F)F)CN(C)C4)c(O[C@H]3CCN4C(=O)OC[C@@H]4C3)cc2c(=O)n1Cc1ccc(Cl)cc1 (single isomer, unassigned) [Example 152] |  |  |  | 159 | 231 | 226
O=C1OC[C@@H]2C[C@@H](Oc3cc4c(=O)n(Cc5ccc(Cl)cc5)c(OC5CCC(O)CC5)nc4cc3-c3cnn(C(F)F)c3)CCN12 (single isomer, unassigned) [Example 141] |  | 258 | 184 | 205 |  | 
O=C1OC[C@@H]2C[C@@H](Oc3cc4c(=O)n(Cc5ccc(Cl)cc5)c(N5CCOCC5)nc4cc3-c3cnn(C(F)F)c3)CCN12 [Example 142] | 129 | 154 | 38 |  |  | 
Cc1nc2cc(-c3cnn(C(F)F)c3)c(O[C@H]3CCN4C(=O)OC[C@@H]4C3)cc2c(=O)n1Cc1ccc(Cl)c(CO)c1 [Example 155] | 1340 | 5100 | 5400 |  |  | 
Cc1cnc(-c2cc3nc(C)n(Cc4ccc(Cl)cc4)c(=O)c3cc2O[C@H]2CCN3C(=O)OC[C@@H]3C2)nc1 [Example 117] | 304 | 652 | 455 |  |  | 
Cc1nc2cc(-c3cnc(N)nn3)c(O[C@H]3CCN4C(=O)OC[C@@H]4C3)cc2c(=O)n1Cc1ccc(Cl)cc1 [Example 144] | 137 | 189 | 319 |  |  | 
Cc1nc2cc(-c3cccnn3)c(O[C@H]3CCN4C(=O)OC[C@@H]4C3)cc2c(=O)n1Cc1ccc(Cl)cc1 [Example 127] | 280 | 484 | 793 |  |  | 
Nc1nc2cc(-c3cnn(C(F)F)c3)c(O[C@H]3CCN4C(=O)OC[C@@H]4C3)cc2c(=O)n1Cc1ccc(Cl)cc1 [Example 111] | 85 | 101 | 60 |  |  | 
Cc1nc2cc(-c3ccc4ncoc4c3)c(O[C@H]3CCN4C(=O)OC[C@@H]4C3)cc2c(=O)n1Cc1ccc(Cl)cc1 [Example 89] | 375 | 436 | 273 |  |  | 
O=C1OC[C@@H]2C[C@@H](Oc3cc4c(=O)n(Cc5ccc(Cl)cc5)c(OCC5CC5)nc4cc3-c3cnn(C(F)F)c3)CCN12 [Example 135] | 939 | 799 | 649 |  |  | 
Cc1nc2cc(-c3nc4ccccn4n3)c(O[C@H]3CCN4C(=O)OC[C@@H]4C3)cc2c(=O)n1Cc1ccc(Cl)cc1 [Example 105] | 112 | 48 | 55 |  |  | 
Cc1nc2cc(-c3cn4ccccc4n3)c(O[C@H]3CCN4C(=O)OC[C@@H]4C3)cc2c(=O)n1Cc1ccc(Cl)cc1 [Example 104] | 99 | 45 | 32 |  |  | 
Cc1nc2cc(-c3cc4ncccn4n3)c(O[C@H]3CCN4C(=O)OC[C@@H]4C3)cc2c(=O)n1Cc1ccc(Cl)cc1 [Example 100] | 63 | 86 | 43 |  |  | 
N[C@H](Cc1nc2cc(-c3cnn(C(F)F)c3)c(O[C@H]3CCN4C(=O)OC[C@@H]4C3)cc2c(=O)n1Cc1ccc(Cl)cc1)C(F)(F)F [Example 156] | 140 | 176 | 93 |  |  | 
Cc1nc2cc(-c3cnc(OC4CC4)nc3)c(O[C@H]3CCN4C(=O)OC[C@@H]4C3)cc2c(=O)n1Cc1ccc(Cl)cc1 [Example 114] | 348 | 323 | 124 |  |  | 
O=C1OC[C@@H]2C[C@@H](Oc3cc4c(=O)n(Cc5ccc(Cl)cc5)c(N5CC(O)C5)nc4cc3-c3cnn(C(F)F)c3)CCN12 [Example 145] | 101 | 108 | 112 |  |  | 
Cc1nn(C(F)F)cc1-c1cc2nc(C)n(Cc3ccc(Cl)cc3)c(=O)c2cc1O[C@H]1CCN2C(=O)OC[C@@H]2C1 [Example 92] | 379 | 796 | 506 |  |  | 
Cc1cnc(-c2cc3nc(C)n(Cc4ccc(Cl)cc4)c(=O)c3cc2O[C@H]2CCN3C(=O)OC[C@@H]3C2)cn1 [Example 128] | 114 | 217 | 131 |  |  | 

SMILES | EC50 ([1]; Human betaherpesvirus 5, 72 h) [nM] | EC50 ([2]; Human alphaherpesvirus 1, 72 h) [nM] | EC50 ([3]; Human alphaherpesvirus 2, 72 h) [nM] | EC50 ([1]; ~72 hrs) [nM] | EC50 ([2]; ~72 hrs) [nM] | EC50 ([3]; ~72 hrs) [nM]
Cc1cnnc(-c2cc3nc(C)n(Cc4ccc(Cl)cc4)c(=O)c3cc2O[C@H]2CCN3C(=O)OC[C@@H]3C2)c1 [Example 136] | 826 | 1720 | 2150 |  |  | 
Cc1nccc(-c2cc3nc(C)n(Cc4ccc(Cl)cc4)c(=O)c3cc2O[C@H]2CCN3C(=O)OC[C@@H]3C2)n1 [Example 131] | 102 | 223 | 157 |  |  | 
Cc1nc2cc(-c3cc4ccccn4n3)c(O[C@H]3CCN4C(=O)OC[C@@H]4C3)cc2c(=O)n1Cc1ccc(Cl)cc1 [Example 15] | 60 | 74 | 41 |  |  | 
Cc1nc2cc(-c3cn4ccncc4n3)c(O[C@H]3CCN4C(=O)OC[C@@H]4C3)cc2c(=O)n1Cc1ccc(Cl)cc1 [Example 91] | 479 | 527 | 602 |  |  | 
Cc1nc2cc(-c3nn4ccnc4s3)c(O[C@H]3CCN4C(=O)OC[C@@H]4C3)cc2c(=O)n1Cc1ccc(C#N)cc1 [Example 146] | 67 | 93 | 143 |  |  | 
Cc1nc2cc(-c3nc4ncccn4n3)c(O[C@H]3CCN4C(=O)OC[C@@H]4C3)cc2c(=O)n1Cc1ccc(Cl)cc1 [Example 103] | 83 | 55 | 55 |  |  | 
Cc1nc2cc(-c3cnc(C4CCOCC4)nc3)c(O[C@H]3CCN4C(=O)OC[C@@H]4C3)cc2c(=O)n1Cc1ccc(Cl)cc1 [Example 115] | 258 | 313 | 111 |  |  | 
O=C1OC[C@@H]2C[C@@H](Oc3cc4c(=O)n(Cc5ccc(Cl)cc5)c(OCCO)nc4cc3-c3cnn(C(F)F)c3)CCN12 [Example 102] | 135 | 71 | 37 |  |  | 
COc1nc2cc(-c3cnn(C(F)F)c3)c(O[C@H]3CCN4C(=O)OC[C@@H]4C3)cc2c(=O)n1Cc1ccc(Cl)cc1 [Example 148] | 275 | 213 | 78 |  |  | 
Cc1nc2cc(-c3cnccn3)c(O[C@H]3CCN4C(=O)OC[C@@H]4C3)cc2c(=O)n1Cc1ccc(Cl)cc1 [Example 122] | 382 | 844 | 543 |  |  | 
O=C1OC[C@@H]2C[C@@H](Oc3cc4c(=O)n(Cc5ccc(Cl)cc5)c(OCCN5CCC5)nc4cc3-c3cnn(C(F)F)c3)CCN12 [Example 134] | 119 | 171 | 98 |  |  | 
Cc1nc2cc(-c3cc4n(n3)CCN(C3CCOCC3)C4)c(O[C@H]3CCN4C(=O)OC[C@@H]4C3)cc2c(=O)n1Cc1ccc(Cl)cc1 [Example 108] | 201 | 198 | 87 |  |  | 
Cc1nc2cc(-c3cncnc3)c(O[C@H]3CCN4C(=O)OC[C@@H]4C3)cc2c(=O)n1Cc1ccc(Cl)cc1 [Example 118] | 135 | 244 | 180 |  |  | 
O=C1OC[C@@H]2C[C@@H](Oc3cc4c(=O)n(Cc5ccc(Cl)cc5)c(CCN5CCOCC5)nc4cc3-c3cnn(C(F)F)c3)CCN12 [Example 120] | 957 | 2410 | 1020 |  |  | 
Cc1nc2cc(-c3nc4cnccn4n3)c(O[C@H]3CCN4C(=O)OC[C@@H]4C3)cc2c(=O)n1Cc1ccc(Cl)cc1 [Example 101] | 449 | 223 | 88 |  |  | 
Cc1ccc(-c2cc3nc(C)n(Cc4ccc(Cl)cc4)c(=O)c3cc2O[C@H]2CCN3C(=O)OC[C@@H]3C2)nn1 [Example 110] | 200 | 288 | 133 |  |  | 
CC(C)(O)Cc1nc2cc(-c3cnn(C(F)F)c3)c(O[C@H]3CCN4C(=O)OC[C@@H]4C3)cc2c(=O)n1Cc1ccc(Cl)cc1 [Example 140] | 2660 | 4310 | 3760 |  |  | 
N[C@@H](Cc1nc2cc(-c3cnn(C(F)F)c3)c(O[C@H]3CCN4C(=O)OC[C@@H]4C3)cc2c(=O)n1Cc1ccc(Cl)cc1)C(F)(F)F [Example 157] | 170 | 176 | 81 |  |  | 
Cc1nc2nc(-c3ccn(C(F)F)n3)c(O[C@H]3CCN4C(=O)OC[C@@H]4C3)cc2c(=O)n1Cc1ccc(Cl)cc1 [Example 20] | 117 | 247 | 209 |  |  | 
